Laboratory results taken from BigSolDB 2.1.

## O=C1CCC(=O)CC1
In acetone, 278.15 K
  solubility (mole fraction): 0.177
In acetone, 283.15 K
  solubility (mole fraction): 0.21
In acetone, 288.15 K
  solubility (mole fraction): 0.248
In acetone, 293.15 K
  solubility (mole fraction): 0.29
In acetone, 298.15 K
  solubility (mole fraction): 0.338
In acetone, 303.15 K
  solubility (mole fraction): 0.391
In acetone, 308.15 K
  solubility (mole fraction): 0.454
In acetone, 313.15 K
  solubility (mole fraction): 0.52
In acetonitrile, 278.15 K
  solubility (mole fraction): 0.241
In acetonitrile, 283.15 K
  solubility (mole fraction): 0.273
In acetonitrile, 288.15 K
  solubility (mole fraction): 0.311
In acetonitrile, 293.15 K
  solubility (mole fraction): 0.35
In acetonitrile, 298.15 K
  solubility (mole fraction): 0.391
In acetonitrile, 303.15 K
  solubility (mole fraction): 0.434
In acetonitrile, 308.15 K
  solubility (mole fraction): 0.481
In acetonitrile, 313.15 K
  solubility (mole fraction): 0.533
In cyclohexane, 283.15 K
  solubility (mole fraction): 0.000676
In cyclohexane, 288.15 K
  solubility (mole fraction): 0.000868
In cyclohexane, 293.15 K
  solubility (mole fraction): 0.00111
In cyclohexane, 298.15 K
  solubility (mole fraction): 0.00141
In cyclohexane, 303.15 K
  solubility (mole fraction): 0.00182
In cyclohexane, 308.15 K
  solubility (mole fraction): 0.00234
In cyclohexane, 313.15 K
  solubility (mole fraction): 0.00293
In ethanol, 278.15 K
  solubility (mole fraction): 0.0215
In ethanol, 283.15 K
  solubility (mole fraction): 0.0301
In ethanol, 288.15 K
  solubility (mole fraction): 0.0479
In ethanol, 293.15 K
  solubility (mole fraction): 0.0777
In ethanol, 298.15 K
  solubility (mole fraction): 0.121
In ethanol, 303.15 K
  solubility (mole fraction): 0.183
In ethanol, 308.15 K
  solubility (mole fraction): 0.265
In ethanol, 313.15 K
  solubility (mole fraction): 0.375
In ethyl acetate, 278.15 K
  solubility (mole fraction): 0.093
In ethyl acetate, 283.15 K
  solubility (mole fraction): 0.117
In ethyl acetate, 288.15 K
  solubility (mole fraction): 0.146
In ethyl acetate, 293.15 K
  solubility (mole fraction): 0.179
In ethyl acetate, 298.15 K
  solubility (mole fraction): 0.223
In ethyl acetate, 303.15 K
  solubility (mole fraction): 0.271
In ethyl acetate, 308.15 K
  solubility (mole fraction): 0.332
In ethyl acetate, 313.15 K
  solubility (mole fraction): 0.404
In isopropanol, 278.15 K
  solubility (mole fraction): 0.018
In isopropanol, 283.15 K
  solubility (mole fraction): 0.0274
In isopropanol, 288.15 K
  solubility (mole fraction): 0.0414
In isopropanol, 293.15 K
  solubility (mole fraction): 0.0681
In isopropanol, 298.15 K
  solubility (mole fraction): 0.107
In isopropanol, 303.15 K
  solubility (mole fraction): 0.165
In isopropanol, 308.15 K
  solubility (mole fraction): 0.254
In isopropanol, 313.15 K
  solubility (mole fraction): 0.36
In methanol, 278.15 K
  solubility (mole fraction): 0.112
In methanol, 283.15 K
  solubility (mole fraction): 0.141
In methanol, 288.15 K
  solubility (mole fraction): 0.174
In methanol, 293.15 K
  solubility (mole fraction): 0.221
In methanol, 298.15 K
  solubility (mole fraction): 0.266
In methanol, 303.15 K
  solubility (mole fraction): 0.324
In methanol, 308.15 K
  solubility (mole fraction): 0.393
In methanol, 313.15 K
  solubility (mole fraction): 0.461
In methyl acetate, 278.15 K
  solubility (mole fraction): 0.156
In methyl acetate, 283.15 K
  solubility (mole fraction): 0.188
In methyl acetate, 288.15 K
  solubility (mole fraction): 0.227
In methyl acetate, 293.15 K
  solubility (mole fraction): 0.27
In methyl acetate, 298.15 K
  solubility (mole fraction): 0.321
In methyl acetate, 303.15 K
  solubility (mole fraction): 0.377
In methyl acetate, 308.15 K
  solubility (mole fraction): 0.441
In methyl acetate, 313.15 K
  solubility (mole fraction): 0.515
In n-butanol, 278.15 K
  solubility (mole fraction): 0.0113
In n-butanol, 283.15 K
  solubility (mole fraction): 0.0181
In n-butanol, 288.15 K
  solubility (mole fraction): 0.0293
In n-butanol, 293.15 K
  solubility (mole fraction): 0.0436
In n-butanol, 298.15 K
  solubility (mole fraction): 0.0654
In n-butanol, 303.15 K
  solubility (mole fraction): 0.0954
In n-butanol, 308.15 K
  solubility (mole fraction): 0.145
In n-butanol, 313.15 K
  solubility (mole fraction): 0.222
In n-propanol, 278.15 K
  solubility (mole fraction): 0.0096
In n-propanol, 283.15 K
  solubility (mole fraction): 0.0162
In n-propanol, 288.15 K
  solubility (mole fraction): 0.0253
In n-propanol, 293.15 K
  solubility (mole fraction): 0.0409
In n-propanol, 298.15 K
  solubility (mole fraction): 0.0638
In n-propanol, 303.15 K
  solubility (mole fraction): 0.0996
In n-propanol, 308.15 K
  solubility (mole fraction): 0.157
In n-propanol, 313.15 K
  solubility (mole fraction): 0.24
